Test results taken from patent publication US10703764B2, “Benzopiperazine compositions as BET bromodomain inhibitors” (FORMA Therapeutics, Inc., priority 2013, dated 2020).

Key:
BRD4 BD1 = target: T1, BRD4 BD1 (Homo sapiens, UniProt O60885); experiment: AlphaScreen binding assay, BRD4 Bromodomain 1
T1 construct: made in house
Method in brief: (§1)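 Compound dilution series were mixed with His-tagged BRD4 bromodomain and biotinylated tetra-acetylated H4 (1-21) peptide at pH 7.3 (BD1 and peptide at 50 nM, BD2 and peptide at 100 nM). Donor and acceptor beads were then added, and plates were equilibrated at least 1 h before reading. IC50 values were fitted with a four-parameter logistic model.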

BRD4 BD2 = target: T2, BRD4 BD2 (Homo sapiens, UniProt O60885); experiment: AlphaScreen binding assay, BRD4 Bromodomain 2
T2 construct: made in house
Method in brief: as §1

Row | SMILES | IC50 (BRD4 BD1) [nM] | IC50 (BRD4 BD2) [nM]
1 | CC(=O)N1c2ccccc2N(CC2CCOCC2)C[C@@H]1C [Example I-925] | > 10000 | > 500
2 | CCC[C@@H](C)CN1C[C@H](C)N(C(C)=O)c2ccccc21 [Example I-927] | > 10000 | > 500
3 | CC(=O)N1CCC[C@H](CN2C[C@H](C)N(C(C)=O)c3ccccc32)C1 [Example I-928] | > 10000 | > 500
4 | CC(=O)N1c2ccccc2N(CC2CCN(C(C)C)CC2)C[C@@H]1C [Example I-929] | > 10000 | > 500
5 | COc1ccc(OC)c(S(=O)(=O)N2C[C@H](C)N(C(C)=O)c3ccccc32)c1 [Example I-930] | > 10000 | > 500
6 | CC(=O)N1c2ccccc2N(S(=O)(=O)c2ccccc2F)C[C@@H]1C [Example I-931] | > 10000 | > 500
7 | CC(=O)N1c2ccccc2N(S(=O)(=O)c2ccn(C)n2)C[C@@H]1C [Example I-933] | > 10000 | > 500
8 | CC(=O)N1c2ccccc2N(S(=O)(=O)c2cccnc2)C[C@@H]1C [Example I-934] | > 10000 | > 500
9 | CC(=O)N1c2ccccc2N(S(=O)(=O)c2ccc(OC(F)(F)F)cc2)C[C@@H]1C [Example I-939] | > 10000 | > 500
10 | CC(=O)N1c2ccccc2N(S(=O)(=O)c2ccccc2C#N)C[C@@H]1C [Example I-943] | > 10000 | > 500
11 | CC(=O)N1c2ccccc2N(S(=O)(=O)c2cccc(C#N)c2)C[C@@H]1C [Example I-944] | > 10000 | > 500
12 | COc1cccc(S(=O)(=O)N2C[C@H](C)N(C(C)=O)c3ccccc32)c1 [Example I-945] | > 10000 | > 500
13 | CC(=O)N1c2ccccc2N(S(=O)(=O)c2cccc(C(F)(F)F)c2)C[C@@H]1C [Example I-947] | > 10000 | > 500
14 | CC(=O)N1c2ccccc2N(S(=O)(=O)c2ccc(C)cc2C)C[C@@H]1C [Example I-949] | > 10000 | > 500
15 | COc1ccc(S(=O)(=O)N2C[C@H](C)N(C(C)=O)c3ccccc32)c(OC)c1 [Example I-950] | > 10000 | > 500
16 | CC(=O)N1c2ccccc2N(S(=O)(=O)c2ccc(C(F)(F)F)nc2)C[C@@H]1C [Example I-951] | > 10000 | > 500
17 | CC(=O)N1c2ccccc2N(S(=O)(=O)C2CC2)C[C@@H]1C [Example I-952] | > 10000 | > 500
18 | CC(=O)N1c2ccccc2N(S(=O)(=O)c2cn(C)c(C)n2)C[C@@H]1C [Example I-956] | > 10000 | > 500
19 | CC(=O)N1c2ccccc2N(S(=O)(=O)Cc2cccc(C#N)c2)C[C@@H]1C [Example I-958] | > 10000 | > 500
20 | COc1cc(Cl)ccc1S(=O)(=O)N1C[C@H](C)N(C(C)=O)c2ccccc21 [Example I-959] | > 10000 | > 500
21 | COc1ccc(S(=O)(=O)N2C[C@H](C)N(C(C)=O)c3ccccc32)c(C)c1 [Example I-960] | > 10000 | > 500

Row | SMILES | IC50 (BRD4 BD1) [nM] | IC50 (BRD4 BD2) [nM]
22 | CC(=O)N1c2ccccc2N(S(=O)(=O)c2cn(C)cn2)C[C@@H]1C [Example I-961] | > 10000 | > 500
23 | CC(=O)N1c2ccc(-c3ccc(S(C)(=O)=O)cc3)cc2N(C(=O)Nc2ccccc2)C[C@@H]1C [Example I-964] | 1000 to 10000 | 50 to 500
24 | CCNC(=O)N1C[C@H](C)N(C(C)=O)c2ccc(-c3ccc(S(C)(=O)=O)cc3)cc21 [Example I-965] | > 10000 | > 500
25 | CC(=O)N1c2ccc(-c3ccc(S(C)(=O)=O)cc3)cc2N(C(=O)Nc2ccccc2C)C[C@@H]1C [Example I-966] | > 10000 | > 500
26 | COc1cccc(NC(=O)N2C[C@H](C)N(C(C)=O)c3ccc(-c4ccc(S(C)(=O)=O)cc4)cc32)c1 [Example I-967] | > 10000 | 50 to 500
27 | CC(=O)N1c2ccc(-c3ccc(S(C)(=O)=O)cc3)cc2N(C(=O)NC2CCCC2)C[C@@H]1C [Example I-968] | 1000 to 10000 | 50 to 500
28 | CC(=O)N1c2ccc(-c3ccc(S(C)(=O)=O)cc3)cc2N(C(=O)Nc2cccc(Cl)c2)C[C@@H]1C [Example I-969] | > 10000 | > 500
29 | COc1ccccc1NC(=O)N1C[C@H](C)N(C(C)=O)c2ccc(-c3ccc(S(C)(=O)=O)cc3)cc21 [Example I-970] | 1000 to 10000 | 50 to 500
30 | CC(=O)N1c2ccc(-c3ccc(S(C)(=O)=O)cc3)cc2N(C(=O)Nc2cccc(C)c2)C[C@@H]1C [Example I-971] | > 10000 | 50 to 500
31 | COc1ccccc1CNC(=O)N1C[C@H](C)N(C(C)=O)c2ccc(-c3ccc(S(C)(=O)=O)cc3)cc21 [Example I-972] | > 10000 | > 500
32 | CC(=O)N1c2ccc(-c3ccc(S(C)(=O)=O)cc3)cc2N(C(=O)Nc2ccccc2Cl)C[C@@H]1C [Example I-973] | 1000 to 10000 | 50 to 500
33 | CC(=O)N1c2ccc(-c3ccc(S(C)(=O)=O)cc3)cc2N(C(=O)Nc2ccc(C)cc2)C[C@@H]1C [Example I-974] | 1000 to 10000 | 50 to 500
34 | CC(=O)N1c2ccc(-c3ccc(S(C)(=O)=O)cc3)cc2N(C(=O)Nc2ccc(Cl)cc2)C[C@@H]1C [Example I-975] | > 10000 | > 500
35 | CC(=O)N1c2ccc(-c3ccc(S(C)(=O)=O)cc3)cc2N(C(=O)NCc2ccc(C)cc2)C[C@@H]1C [Example I-976] | > 10000 | > 500
36 | CC(=O)N1c2ccc(-c3ccc(S(C)(=O)=O)cc3)cc2N(C(=O)NCc2ccccc2Cl)C[C@@H]1C [Example I-977] | > 10000 | > 500
37 | CC(=O)N1c2ccc(-c3ccc(S(C)(=O)=O)cc3)cc2N(C(=O)NCC(C)C)C[C@@H]1C [Example I-978] | > 10000 | > 500
38 | CC(=O)N1c2ccc(-c3ccc(S(C)(=O)=O)cc3)cc2N(C(=O)Nc2ccsc2)C[C@@H]1C [Example I-979] | 1000 to 10000 | 50 to 500
39 | CC(=O)N1c2ccc(-c3ccc(S(C)(=O)=O)cc3)cc2N(C(=O)NCc2ccco2)C[C@@H]1C [Example I-980] | > 10000 | > 500
40 | CC(=O)N1c2ccc(-c3ccc(S(C)(=O)=O)cc3)cc2N(C(=O)c2cc(C)[nH]n2)CC1C (centres unmarked) [Example I-981] | 1000 to 10000 | 50 to 500
41 | CC(=O)N1c2ccc(-c3ccc(S(C)(=O)=O)cc3)cc2N(C(=O)c2ncc[nH]2)CC1C (centres unmarked) [Example I-982] | 1000 to 10000 | > 500
42 | CC(=O)N1c2ccc(-c3ccc(S(C)(=O)=O)cc3)cc2N(C(=O)c2ccc(S(=O)(=O)N(C)C)o2)C[C@@H]1C [Example I-983] | > 10000 | > 500

Next, values leading:

Row | IC50 (BRD4 BD1) [nM] | IC50 (BRD4 BD2) [nM] | SMILES
43 | > 10000 | > 500 | CC(=O)N1c2ccccc2N(Cc2ccc3c(c2)OCO3)C[C@@H]1C [Example I-920]
44 | > 10000 | 50 to 500 | CC(=O)N1c2ccccc2N(Cc2cccc3c2OCO3)C[C@@H]1C [Example I-921]
45 | > 10000 | > 500 | CC(=O)N1c2ccccc2N(Cc2ccc(N3CCOCC3)nc2)C[C@@H]1C [Example I-922]
46 | > 10000 | > 500 | CC(=O)N1c2ccccc2N(Cc2ccc(O)cc2)C[C@@H]1C [Example I-923]
47 | > 10000 | > 500 | CC(=O)N1c2ccccc2N(Cc2cccnc2)C[C@@H]1C [Example I-924]
48 | > 10000 | > 500 | CC(=O)N1c2ccccc2N(Cc2cncn2C)C[C@@H]1C [Example I-926]
49 | > 10000 | > 500 | CC(=O)N1c2ccccc2N(S(=O)(=O)c2ccccc2)C[C@@H]1C [Example I-932]
50 | > 10000 | > 500 | CC(=O)N1c2ccccc2N(S(=O)(=O)c2ccc(Cl)cc2)C[C@@H]1C [Example I-935]
51 | > 10000 | > 500 | COc1ccc(S(=O)(=O)N2C[C@H](C)N(C(C)=O)c3ccccc32)cc1 [Example I-936]
52 | > 10000 | > 500 | CC(=O)N1c2ccccc2N(S(=O)(=O)c2ccc(C(F)(F)F)cc2)C[C@@H]1C [Example I-937]
53 | > 10000 | > 500 | CC(=O)N1c2ccccc2N(S(=O)(=O)c2ccc(C#N)cc2)C[C@@H]1C [Example I-938]
54 | > 10000 | > 500 | CC(=O)N1c2ccccc2N(S(=O)(=O)c2ccc(C)cc2)C[C@@H]1C [Example I-940]
55 | > 10000 | > 500 | CC(=O)N1c2ccccc2N(S(=O)(=O)c2ccccc2C)C[C@@H]1C [Example I-941]
56 | > 10000 | > 500 | CC(=O)N1c2ccccc2N(S(=O)(=O)c2ccccc2Cl)C[C@@H]1C [Example I-942]
57 | > 10000 | > 500 | CC(=O)N1c2ccccc2N(S(=O)(=O)c2cccc(Cl)c2)C[C@@H]1C [Example I-946]
58 | > 10000 | > 500 | CC(=O)N1c2ccccc2N(S(=O)(=O)c2cccc(C)c2)C[C@@H]1C [Example I-948]
59 | > 10000 | > 500 | CC(=O)N1c2ccccc2N(S(=O)(=O)Cc2ccccc2Cl)C[C@@H]1C [Example I-953]
60 | > 10000 | > 500 | CC(=O)N1c2ccccc2N(S(=O)(=O)Cc2ccccc2)C[C@@H]1C [Example I-954]
61 | > 10000 | > 500 | CC(=O)N1c2ccccc2N(S(=O)(=O)Cc2cccc(Cl)c2)C[C@@H]1C [Example I-955]
62 | > 10000 | > 500 | CC(=O)c1ccc(S(=O)(=O)N2C[C@H](C)N(C(C)=O)c3ccccc32)cc1 [Example I-957]
63 | > 10000 | > 500 | CC(=O)N1c2ccccc2N(S(=O)(=O)Cc2ccc(Cl)cc2)C[C@@H]1C [Example I-962]
64 | > 10000 | > 500 | CC(=O)N1c2ccccc2N(S(=O)(=O)Cc2ccc(C#N)cc2)C[C@@H]1C [Example I-963]
